From paper PMC10850047, “Exploring the impact of PEGylation on pharmacokinetics: a size-dependent effect of polyethylene glycol on prostate-specific membrane antigen inhibitors” (EJNMMI Research, 2024)

Experiments:
PSMA = molecular target: T1, PSMA (Homo sapiens, UniProt Q04609); conditions: LNCaP cells, competition with [68Ga]Ga-PSMA-11; cited from earlier work
T1 construct: host or cells: LNCaP

[1] = design: method as in PMID 36696174; conditions: at 2 h; cited from earlier work
[2] = system: LNCaP tumor-bearing NOD/SCID mice; experiment: Biodistribution in LNCaP tumor model; conditions: for Blood uptake / Bone uptake / Brain uptake / Heart uptake / Kidney uptake / Liver uptake / Lung uptake / Muscle uptake / Salivary uptake / Small int (small intestine) uptake / Spleen uptake / Stomach uptake / Tumor uptake: mean ± SD (n=5)
LNCaP cells = experiment: Uptake and internalization in LNCaP cells; assay type: cell-based, human; conditions: 120 min incubation, normalized to 10^6 cells
Procedure: LNCaP prostate cancer cell line obtained from the American Type Culture Collection (ATCC, Manassas, VA) was used for cell affinity studies. […] The supernatant was disposed, and the cell pellet was resuspended in a culture medium, and LNCaP cells (150,000 cells/well) were counted with a hemocytometer and seeded in poly-L-lysine-coated 24-well plates used in cell binding studies. The cells were then allowed to grow at 37 °C for 48 h. PC3-PIP cells provided by Professor Xiaoyuan Chen (Singapore) require additional Puromycin (2 µg/ml) in addition to the appealed culture conditions.

PC3-PIP tumors = experiment: Micro-SPECT/CT imaging of 177Lu-labeled ligands in PC3-PIP tumor model; assay type: in vivo; conditions: balb/c-nu mice, scans 1-168 h
Procedure: To perform imaging studies, the male mice bearing LNCaP tumors were injected with the corresponding radioligand (~ 2.5 MBq; 100 μL) via their tail veins. The micro-PET/CT scans (Inveon PET, Siemens) were conducted at 10, 30, 60, and 120 min after injection. The mice were anesthetized and maintained under 2% isoflurane in oxygen at a flow rate of 2 L/min during the 2-h imaging study. First, a 10 min static PET imaging acquisition was carried out, followed by a 10 min CT scan for localization and attenuation correction. Data analysis was performed using Inveon Research Workplace software. For PC3-PIP tumor model, the imaging studies were performed with micro-PET/SPECT/CT (Inliview-3000B, Novel Medical). Data analysis was performed using Nmsoft-Al ws v1.7–1 software.
Balb/c-nu mice carrying PC3-PIP tumors were chosen for the micro-SPECT/CT imaging investigation of [^177Lu]Lu-PP4-WD and [^177Lu]Lu-PP8-WD (see Additional file 1: Figure S8).

T1 sequence (Q04609 whole entry): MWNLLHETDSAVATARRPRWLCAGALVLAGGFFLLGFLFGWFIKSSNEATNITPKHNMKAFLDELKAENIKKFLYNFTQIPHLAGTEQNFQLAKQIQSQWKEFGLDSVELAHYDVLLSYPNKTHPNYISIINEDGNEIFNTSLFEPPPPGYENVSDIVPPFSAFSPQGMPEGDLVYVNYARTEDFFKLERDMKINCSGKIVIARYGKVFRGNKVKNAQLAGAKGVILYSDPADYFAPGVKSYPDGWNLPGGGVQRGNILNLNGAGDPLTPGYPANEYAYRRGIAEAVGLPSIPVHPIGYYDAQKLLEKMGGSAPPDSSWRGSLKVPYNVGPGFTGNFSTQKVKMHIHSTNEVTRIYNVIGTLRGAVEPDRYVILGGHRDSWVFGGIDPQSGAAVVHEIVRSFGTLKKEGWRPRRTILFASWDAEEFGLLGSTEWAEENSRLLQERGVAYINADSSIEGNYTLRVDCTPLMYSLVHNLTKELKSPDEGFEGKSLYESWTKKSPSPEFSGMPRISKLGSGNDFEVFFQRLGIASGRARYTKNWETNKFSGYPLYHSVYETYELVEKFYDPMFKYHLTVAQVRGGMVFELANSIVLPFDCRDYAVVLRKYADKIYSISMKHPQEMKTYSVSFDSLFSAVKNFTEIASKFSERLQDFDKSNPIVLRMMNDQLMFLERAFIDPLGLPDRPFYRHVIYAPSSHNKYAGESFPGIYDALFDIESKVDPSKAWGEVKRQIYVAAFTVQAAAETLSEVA

O=C([O-])CN1CCN(CC(=O)[O-])CCN(CC(=O)NCCCCCN(CCCC[C@H](NC(=O)N[C@@H](CCC(=O)O)C(=O)O)C(=O)O)C(=O)C2c3ccccc3-c3ccccc32)CCN(CC(=O)[O-])CC1.[68Ga+3] [[^68Ga]Ga-Flu-1]
IC50 (PSMA): 9.62 ± 1.7 nM
Kidney uptake, folds greater than that in the tumor [1]: 3 folds
Tumor/Blood ratio ([2]; 30 min): 5.94±1.41
Tumor/Heart ratio ([2]; 30 min): 17.48±3.23
Tumor/Kidney ratio ([2]; 30 min): 0.14±0.12
Tumor/Liver ratio ([2]; 30 min): 15.57±2.89
Tumor/Salivary ratio ([2]; 30 min): 5.63±1.11
Blood uptake ([2]; 30 min p.i.): 5.53±2.11 %ID/g
Bone uptake ([2]; 30 min p.i.): 0.66±0.22 %ID/g
Brain uptake ([2]; 30 min p.i.): 0.18±0.10 %ID/g
Heart uptake ([2]; 30 min p.i.): 1.88±0.46 %ID/g
Kidney uptake ([2]; 30 min p.i.): 240.00 ± 34.68 %ID/g
Liver uptake ([2]; 30 min p.i.): 2.11±0.52 %ID/g
Lung uptake ([2]; 30 min p.i.): 5.77±2.01 %ID/g
Muscle uptake ([2]; 30 min p.i.): 0.93±0.34 %ID/g
Salivary uptake ([2]; 30 min p.i.): 5.84±3.65 %ID/g
Small int (small intestine) uptake ([2]; 30 min p.i.): 2.52±0.60 %ID/g
Spleen uptake ([2]; 30 min p.i.): 9.45±5.92 %ID/g
Stomach uptake ([2]; 30 min p.i.): 1.84±0.31 %ID/g
Tumor uptake ([2]; 30 min p.i.): 32.86 ± 12.02 %ID/g
Tumor/Blood ratio ([2]; 60 min): 11.1±1.97
Tumor/Heart ratio ([2]; 60 min): 44.13±4.22
Tumor/Kidney ratio ([2]; 60 min): 0.22±0.21
Tumor/Liver ratio ([2]; 60 min): 33.17±3.09
Tumor/Salivary ratio ([2]; 60 min): 17.24±3.54
Blood uptake ([2]; 60 min p.i.): 4.69±2.33 %ID/g
Bone uptake ([2]; 60 min p.i.): 0.29±0.18 %ID/g
Brain uptake ([2]; 60 min p.i.): 0.11±0.10 %ID/g
Heart uptake ([2]; 60 min p.i.): 1.18±0.36 %ID/g
Kidney uptake ([2]; 60 min p.i.): 240.01±31.08 %ID/g
Liver uptake ([2]; 60 min p.i.): 1.57±0.60 %ID/g
Lung uptake ([2]; 60 min p.i.): 3.27±0.84 %ID/g
Muscle uptake ([2]; 60 min p.i.): 0.44±0.25 %ID/g
Salivary uptake ([2]; 60 min p.i.): 3.02±1.27 %ID/g
Small int (small intestine) uptake ([2]; 60 min p.i.): 1.89±1.10 %ID/g
Spleen uptake ([2]; 60 min p.i.): 7.25±3.39 %ID/g
Stomach uptake ([2]; 60 min p.i.): 0.86±0.11 %ID/g
Tumor uptake ([2]; 60 min p.i.): 52.07 ± 14.83 %ID/g
Tumor/Blood ratio ([2]; 120 min): 13.07±2.56
Tumor/Heart ratio ([2]; 120 min): 69.16±5.69
Tumor/Kidney ratio ([2]; 120 min): 0.31±0.21
Tumor/Liver ratio ([2]; 120 min): 37.14±3.65
Tumor/Salivary ratio ([2]; 120 min): 27.47±4.33
Blood uptake ([2]; 120 min p.i.): 3.07±2.7 %ID/g
Bone uptake ([2]; 120 min p.i.): 0.34±0.21 %ID/g
Brain uptake ([2]; 120 min p.i.): 0.06±0.04 %ID/g
Heart uptake ([2]; 120 min p.i.): 0.58±0.28 %ID/g
Kidney uptake ([2]; 120 min p.i.): 127.83 ± 27.94 %ID/g
Liver uptake ([2]; 120 min p.i.): 1.08±0.71 %ID/g
Lung uptake ([2]; 120 min p.i.): 1.23±0.47 %ID/g
Muscle uptake ([2]; 120 min p.i.): 0.19±0.08 %ID/g
Salivary uptake ([2]; 120 min p.i.): 1.46±1.05 %ID/g
Small int (small intestine) uptake ([2]; 120 min p.i.): 0.46±0.25 %ID/g
Spleen uptake ([2]; 120 min p.i.): 2.38±1.75 %ID/g
Stomach uptake ([2]; 120 min p.i.): 0.42±0.17 %ID/g
Tumor uptake ([2]; 120 min p.i.): 40.11 ± 9.24 %ID/g
Internalization in LNCaP cells (LNCaP cells): 21.3 ± 0.13%
Uptake in LNCaP cells (LNCaP cells): 34.57 ± 4.14%

O=C([O-])CN1CCN(CC(=O)[O-])CCN(CC(=O)NCCOCCOCCOCCOCCOCCOCCOCCOCCNC(=O)CN(CCCC[C@H](NC(=O)N[C@@H](CCC(=O)O)C(=O)O)C(=O)O)C(=O)C2c3ccccc3-c3ccccc32)CCN(CC(=O)[O-])CC1.[177Lu+3] [[^177Lu]Lu-PP8-WD]
Tumor-to-background ratio in micro-SPECT/CT (PC3-PIP tumors): favorable tumor-to-background ratio for up to 168 h
